These results are taken from US20190070170A1, “METHOD OF S[…]-1” (Macau University of Science and Technology, priority 2017, published 2019).

Experiment [1] relates to PGE2. Briefly: PGE2 production in LPS-stimulated RAW264.7 cells (ELISA). The class given is cell-based, mouse. Conditions: SIN 160, 320 or 640 μM or 0.5 μM DEX 1 h, then LPS 100 ng/ml 18 h. Here is the method:
(§1) RAW264.7 and A549 cell lines were obtained from American Type Culture Collection (ATCC, Manassas, Va., USA) and maintained in DMEM (RAW264.7) or 1640 (A549) medium containing 10% FBS (Gibco-BRL, Grand Island, N.Y., USA) and antibiotics at 37° C. in a humidified atmosphere containing 5% CO2. RAW264.7 cells were plated in 6-well plates at a density of 4×10^5 cells and incubated for 24 h, then the cells were pretreated with different concentrations of SIN for 1 h before stimulating with LPS (100 ng/ml). A549 cells were seeded in 6-well plates at a density of 1×10^5 cells and incubated for 24 h, followed by pretreatment with SIN. A549 cells were then stimulated by IL-1β (1 ng/ml).
(§2) RAW264.7 cells and rat peritoneal macrophages were seeded in a 96-well plate at density of 1.4×10^4 and 1.5×10^5 cells, respectively. Various concentration of SIN was added to the cells for 1 hour before LPS stimulation. After stimulation with LPS for 18 h (RAW264.7 cells) or 24 h (rat peritoneal macrophages), MTT solution was added to each well and incubated for another 4 hours. 100 μl 10% SDS-HCl solution was added to each well for overnight to dissolve the formazan dye. The optical density was measured at 570 nm against a reference wavelength of 650 nm using a microplate UV/VIS spectrophotometer (Tecan, Mannedorf, Switzerland). […]

In another experiment the test system is p65. Kind of experiment: Nuclear translocation of p65 in LPS-stimulated rat peritoneal macrophages (immunofluorescence, western blotting). The class given is cell-based. Conditions: 640 μM SIN 1 h, LPS 30 min. The method, then:
Whole-cell and nuclear proteins were obtained using RIPA lysis buffer (CST, Boston, Mass., USA) and Nuclear and Cytoplasmic Extraction Reagents kit from Thermo Scientific (Asheville, N.C., USA), respectively. For immunoblotting, proteins from whole-cell, cytoplasm, nuclear, and microsomal fractions were separated on SDS-PAGE, then transferred onto a nitrocellulose membrane from GE Healthcare Life Sciences (Buckinghamshire, UK), and incubated with 5% skimmed milk at room temperature for 1 h. Membranes were incubated with the primary antibodies including cPLA2, p-cPLA2, COX-1 and p65 (all dilutions 1:1000), and COX-2 (dilution 1:500) from Cell Signaling Technology (Boston, Mass., USA); and mPGES-1 (dilution 1:200) from Cayman Chemical (Ann Arbor, Mich., USA); and β-actin (dilution 1:1000) from Santa Cruz Biotechnology (Santa Cruz, Calif., USA); and TBP (dilution 1:200) was from Abcam (Cambridge, UK) at 4° C. overnight and the band was visualized by incubating the anti-rabbit or anti-mouse secondary antibodies (dilution 1:10,000) from Li-COR (Lincoln, Nebr., USA) at room temperature for 1 h. The levels of protein expression were measured using Odyssey v3.0 software from Li-COR (Lincoln, Nebr., USA).
RAW 264.7 cells were seeded on glass coverslip at a density 2.0×10^5 cells/well in 6-well plates and incubated for 24 h. […]

A further experiment relates to iNOS. Briefly: iNOS protein level in LPS-stimulated rat peritoneal macrophages (immunoblotting). The class given is cell-based. Conditions: pretreatment 1 h, LPS 1 μg/ml 24 h. Here is the method:
(§3) Sprague-Dawley (SD) rats from the University of Hong Kong were housed in cages with free access to food and water. Peritoneal macrophages of SD rats were isolated as described in Liu J. et al., Pharmacological research 2016, 111:303-315. Briefly, untreated rats were sacrificed and after laparotomy, about 50 ml cold sterile Hank's balanced salt solution (HBSS) was used to lavage the peritoneal cavity at twice, and then the peritoneal lavage fluid was collected and centrifuged at 1500 rpm for 10 min. The cell pellets was suspended at a density 1.5×10^6 cells/ml in pre-hearted DMEM medium with 10% heat-inactivated FBS, penicillin G (100 units/ml), streptomycin ([…]), and L-glutamine (2 mM), followed by seeding in 6-well plates at a density of 4.5×10^6 cells and incubation for 2 h. Then the medium were discarded to remove the non-adherent cells. The adherent cells were further washed for two times with pre-heated DMEM medium to remove floating cells. Next, cells were pre-treated with various concentration of SIN for 1 h, followed by stimulation with LPS (1 μg/ml).
Whole-cell and nuclear proteins were obtained using RIPA lysis buffer (CST, Boston, Mass., USA) and Nuclear and Cytoplasmic Extraction Reagents kit from Thermo Scientific (Asheville, N.C., USA), respectively. […] The levels of protein expression were measured using Odyssey v3.0 software from Li-COR (Lincoln, Nebr., USA).

For another experiment, the system named is TNF-α. Kind of experiment: TNF-α level in LPS-stimulated RAW264.7 cells (ELISA). The class given is cell-based, mouse. Conditions: pretreatment 1 h, LPS 100 ng/ml 18 h. Here is the method: as §1, §2
For the next experiment, the system named is p-cPLA2. Kind of experiment: p-cPLA2 protein expression in IL-1β-stimulated A549 cells (western blotting). The class given is cell-based. Conditions: IL-1β with SIN or DEX for 48 h. Here is the method:
as §1
Whole-cell and nuclear proteins were obtained using RIPA lysis buffer (CST, Boston, Mass., USA) and Nuclear and Cytoplasmic Extraction Reagents kit from Thermo Scientific (Asheville, N.C., USA), respectively. For immunoblotting, proteins from whole-cell, cytoplasm, nuclear, and microsomal fractions were separated on SDS-PAGE, then transferred onto a nitrocellulose membrane from GE Healthcare Life Sciences (Buckinghamshire, UK), and incubated with 5% skimmed milk at room temperature for 1 h. […] The levels of protein expression were measured using Odyssey v3.0 software from Li-COR (Lincoln, Nebr., USA).

Experiment [2] deals with PGE2. Kind of experiment: RNA interference experiment of mPGES-1: PGE2 production in mPGES-1 knockdown RAW264.7 cells. In kind it is cell-based, mouse. Conditions: mPGES-1 siRNA RAW264.7 cells; SIN 640 μM or DEX 0.5 μM 1 h, LPS 10 ng/mL 18 h. The method, then:
RAW264.7 cells were transfected with ON-TARGETplus SMARTpool mPGES-1 siRNA (mPGES-1 siRNA) or nonspecific siRNA (NS siRNA) using HiPerFect transfection reagent according to the manufacturer's recommended protocols. After 24 h of transfection, the cells were treated with or without SIN (640 μM) or DEX (0.5 μM) in complete growth medium. After 1 h, all groups were stimulated with LPS (10 ng/mL) for 18 h except the control group. Then the cell culture media were collected and stored at −20° C. for later analysis of the levels of PGE2. Cells were harvested for qRT-PCR, the mouse primers used are listed as follows: […]

A further experiment has as its system PGD2. Kind of experiment: PGD2 level in culture supernatants of LPS-activated rat peritoneal macrophages (ELISA). The class given is cell-based. Conditions: LPS-stimulated rat peritoneal macrophages, culture supernatant. Here is the method: as §3
RAW264.7 cells and rat peritoneal macrophages were seeded in a 96-well plate at density of 1.4×10^4 and 1.5×10^5 cells, respectively. […] The optical density was measured at 570 nm against a reference wavelength of 650 nm using a microplate UV/VIS spectrophotometer (Tecan, Mannedorf, Switzerland). […]

`COC1=C[C@@H]2[C@@H]3Cc4ccc(OC)c(O)c4[C@]2(CCN3C)CC1=O` [SIN, sinomenine]: the PGE2 production entry with PGE2 [1] is given as “significant inhibition of PGE2 production in a dose dependent manner”. The “nuclear translocation of p65” value with p65 is “does not produce observable inhibitory effects”. Further, in the experiment with iNOS, the iNOS expression entry is “significantly inhibited”. For the same compound, the TNF-α production entry in the experiment on TNF-α was “significantly inhibited”. Besides, in the experiment on p-cPLA2, the p-cPLA2 protein expression result is recorded as “did not suppress”. The “change of the compound's inhibitory effect on PGE2 production by mPGES-1 knockdown” value in the experiment on PGE2 [2] is “not affected”. Further, in the experiment with PGD2, the “level of PGD2” value was “no significant influence”.
